Molecules are shown by their SMILES. The source made the active and inactive calls.

Our source for the IC50, Ki and Activity values is ChEMBL document CHEMBL1129156, “Oreganic acid: a potent novel inhibitor of ras farnesyl-protein transferase from an endophytic fungus” (Bioorg Med Chem Lett, 1996).

What all share (type): protein-complex assay
The target of assay [1] is T1, Protein farnesyltransferase (Homo sapiens, UniProt P49354+P49356). The assay is described as follows: In vitro inhibition of human recombinant Protein farnesyltransferase.
For assay [2], the target named is T1, Protein farnesyltransferase. The assay is described as follows: In vitro inhibition of human recombinant Protein farnesyltransferase with respect to FPP.
For assay [3] the target is unchanged. The assay is described as follows: In vitro inhibition of human recombinant Protein farnesyltransferase at 20 uM (Inactive).

Take `COC(=O)C/C(C(=O)OC)=C(/CCCCCCCCCCCCCCCCOS(=O)(=O)O)C(=O)OC`: the IC50 in assay [1] was found to be 10.6 nM.
Same read-out and setting: under `O=C(O)C/C(C(=O)O)=C(/CCCCCCCCCCCCCCCCO)C(=O)O` stands 3.3 nM.
In the case of `O=C(O)C/C(C(=O)O)=C(/CCCCCCCCCCCCCCCCOS(=O)(=O)O)C(=O)O`, the IC50 in assay [1] was found to be 14 nM. The Ki in assay [2] was found to be 4.5 nM.
`COC(=O)C/C(C(=O)OC)=C(/CCCCCCCCCCCCCCCCO)C(=O)OC`: the result in assay [3] was inactive.

As a reminder, the IC50 is the point on the concentration scale where inhibition reaches its midpoint. The term Ki denotes a dissociation constant, usually derived from enzyme kinetics or from competition with a known ligand.
